# Laboratory results as given in patent publication US4130648A, “5-Fluorouracil derivatives and antitumor preparations containing the same” (Eisai Co., Ltd., priority 1976, dated 1978).
# Read-outs that look alike come from different tables or passages of the source.
# Assays:
# Sarcoma-180 (S-180) [1] = test: Effect on growth of solid tumor by oral administration, S-180; format: in vivo, mice (ICR/JCL, female); details: for Tumor growth (weight : T/C %): 3 hours after implantation, 20 days after; for minimal effective dose: Mus musculus, 480 h, read-out: minimum effective dose
# Experimental: (3) Effect on growth of solid tumor by oral administration
# 1.8 × 10^6 cells of S-180 were implanted subcutaneously in ICR/JCL mice (female, 6-8 weeks old).
# Each of the drugs was orally administered as a solution of safflower oil 3 hours after the implantation.
# Safflower oil was administered as control for each of the drugs.
# Twenty days after, the tumor weight was measured, and the ratio of the tumor weight to that of the control group (T/C %) was calculated.
# L-1210 leukemia [2] = test: Survival effect, L-1210 leukemia; format: in vivo, mice (CDF1, female); details: for ILS % over controls / Mean survival days: 24 hours after implantation
# Experimental: 3. Antitumor activity on L-1210 leukemia
# 10^5 cells of L-1210 leukemia were intraperitoneally implanted in CDF1 mice (female, 8-10 weeks old). […]
# MCT was administered as control for Compound A.
# Mean survival time after the implantation was determined, and the increase in life-span (ILS) over controls was calculated.
# L-1210 leukemia [3] = test: Duration of antitumor activity, L-1210 leukemia; format: in vivo, mice (CDF1, female)
# From the text: (2) Duration of antitumor activity
# 10^5 cells of L-1210 leukemia were intraperitoneally implanted in the mice.
# Survival days after the implantation were counted.
# [4] = Acute toxicity, LD50 after three weeks observation; format: in vivo, mice (CDF1, female); details: mouse, in vivo, CDF1 mice, three weeks observation
# From the text: (§1) LD50 (mg/Kg) after three weeks observation in CDF1 mice (female, 8-10 weeks old)
# CDF1 mice = test: Acute toxicity, LD50 after three weeks observation; format: in vivo, female); details: from Table 1, compared with FT-207 and 5-FU
# From the text: as §1
# Sarcoma-180 (S-180) [5] = test: Inhibitory effect on the growth of S-180 ascites form (TPCV); format: in vivo, mice (ICR/JCL, female); details: for Tumor growth (TPCV : T/C %): i.p., 24 hours after implantation, day 10; for ED50: Mus musculus, ip, 240 h; for ED50 / safety index (LD50 /ED50): S-180 ascites form, from Tables 1 and 2
# Experimental: 2. Antitumor activity against Sarcoma-180 (S-180)
# (1) Inhibitory effect on the growth of S-180 ascites form (Intraperitoneal administration)
# 10^6 cells of S-180 were intraperitoneally implanted in ICR/JCL mice (female, 8-10 weeks old).
# Compound A was administered as a solution of soybean oil and 5-FU was administered as saline solution, at 24 hours after the implantation.
# Soybean oil was administered as control for the Compound A. Saline solution was administered as control for 5-FU.
# Ten days after the implantation of the tumor cells, the total packed cell volumes (TPCV) were measured. The measurement of TPCV was carried out in accordance with Hoshi, A. et al., Chemical & Pharmaceutical Bulletion 17 (4), 848-850 (1969). The results are shown in Table 2, wherein T/C % means the ratio of the TPCV of the test groups to that of the control group.
# Sarcoma-180 (S-180) [6] = test: Survival effect, S-180; format: in vivo, mice (ICR/JCL, female); details: for ILS (%) over control / Mean survival days: 24 hours after implantation
# Experimental: 10^6 cells of S-180 were intraperitoneally implanted in ICR/JCL mouse (female, 6-8 weeks old).
# Compound A was administered as a solution of soybean oil at 24 hours after the implantation.
# Soybean oil was administered as control for Compound A.
# Survival days after implantation was measured. The increase in life-span over control groups (ILS = T/C % - 100) was calculated.
# [7] = clinical background; cited from earlier work
# [8] = ip, intraperitoneal administration
# [9] = sc, subcutaneous administration
smiles,measurement,setting,value
"O=c1[nH]c(=O)n(C2CCCO2)cc1F (stereo not drawn) [FT-207, reference compound]",Tumor growth (weight : T/C %),Sarcoma-180 (S-180) [1]; 25 mg/Kg oral,148%
same,Tumor growth (weight : T/C %),Sarcoma-180 (S-180) [1]; 50 mg/Kg oral,269%
same,Tumor growth (weight : T/C %),Sarcoma-180 (S-180) [1]; 100 mg/Kg oral,58%
same,Tumor growth (weight : T/C %),Sarcoma-180 (S-180) [1]; 200 mg/Kg oral,43%
same,Tumor growth (weight : T/C %),Sarcoma-180 (S-180) [1]; 400 mg/Kg oral,34%
same,minimal effective dose,"Sarcoma-180 (S-180) [1]; oral, S-180 solid tumor, from Table 4",~100 mg/kg
same,ILS % over controls,L-1210 leukemia [2]; 50 mg/Kg i.p. in saline,0%
same,Mean survival days,L-1210 leukemia [2]; 50 mg/Kg i.p. in saline,7.0 days
same,ILS % over controls,L-1210 leukemia [2]; 200 mg/Kg i.p. in saline,1%
same,Mean survival days,L-1210 leukemia [2]; 200 mg/Kg i.p. in saline,7.1 days
same,effectiveness,L-1210 leukemia [2]; dose of about 1/4 LD50,it cannot be confirmed that FT-207 is effective
same,Mean survival days,"L-1210 leukemia [3]; 200 mg/Kg i.p. in saline, 1 day before tumor implantation",8.8 days
same,Mean survival days,"L-1210 leukemia [3]; 200 mg/Kg i.p. in saline, 2 days before tumor implantation",9.0 days
same,Mean survival days,"L-1210 leukemia [3]; 200 mg/Kg i.p. in saline, 4 days before tumor implantation",9.0 days
"Cc1c(C)c2c(c(C)c1OC(=O)n1cc(F)c(=O)[nH]c1=O)CCC(C)(CCCC(C)CCCC(C)CCCC(C)C)O2 (racemic) [Compound A, N1-d,l-α-tocopheryl carbonyl-5-fluorouracil]",LD50 at 504 h,[4]; [8],> 4000 mg/kg
same,LD50 at 504 h,[4]; [9],> 4000 mg/kg
same,LD50 at 504 h,[4]; oral administration,> 4000 mg/kg
same,acute toxicity,CDF1 mice,lower acute toxicity than FT-207 and 5-FU
same,Tumor growth (TPCV : T/C %),Sarcoma-180 (S-180) [5]; 62 mg/Kg,77.5%
same,Tumor growth (TPCV : T/C %),Sarcoma-180 (S-180) [5]; 125 mg/Kg,64.7%
same,Tumor growth (TPCV : T/C %),Sarcoma-180 (S-180) [5]; 250 mg/Kg,30.4%
same,Tumor growth (TPCV : T/C %),Sarcoma-180 (S-180) [5]; 500 mg/Kg,3.3%
same,Tumor growth (TPCV : T/C %),Sarcoma-180 (S-180) [5]; 1000 mg/Kg,0%
same,Tumor growth (TPCV : T/C %),Sarcoma-180 (S-180) [5]; 2000 mg/Kg,0%
same,Tumor growth (TPCV : T/C %),Sarcoma-180 (S-180) [5]; 4000 mg/Kg,0%
same,ED50,Sarcoma-180 (S-180) [5],~170 mg/kg
same,safety index (LD50 /ED50),Sarcoma-180 (S-180) [5],more than 24
same,toxicity as an antitumor agent,Sarcoma-180 (S-180) [5]; compared with 5-FU,less toxic
same,ILS (%) over control,Sarcoma-180 (S-180) [6]; 500 mg/Kg,139.1%
same,Mean survival days,Sarcoma-180 (S-180) [6]; 500 mg/Kg,33.0 days
same,ILS (%) over control,Sarcoma-180 (S-180) [6]; 1000 mg/Kg,215.2%
same,Mean survival days,Sarcoma-180 (S-180) [6]; 1000 mg/Kg,43.5 days
same,ILS (%) over control,Sarcoma-180 (S-180) [6]; 2000 mg/Kg,160.9%
same,Mean survival days,Sarcoma-180 (S-180) [6]; 2000 mg/Kg,36.0 days
same,ILS (%) over control,Sarcoma-180 (S-180) [6]; 4000 mg/Kg,182.6%
same,Mean survival days,Sarcoma-180 (S-180) [6]; 4000 mg/Kg,39.0 days
same,survival effect,Sarcoma-180 (S-180) [6]; single administration of 1/8 LD50,marked effect
same,Tumor growth (weight : T/C %),Sarcoma-180 (S-180) [1]; 62 mg/Kg oral,106%
same,Tumor growth (weight : T/C %),Sarcoma-180 (S-180) [1]; 125 mg/Kg oral,87%
same,Tumor growth (weight : T/C %),Sarcoma-180 (S-180) [1]; 250 mg/Kg oral,33%
same,Tumor growth (weight : T/C %),Sarcoma-180 (S-180) [1]; 500 mg/Kg oral,47%
same,Tumor growth (weight : T/C %),Sarcoma-180 (S-180) [1]; 1000 mg/Kg oral,38%
same,Tumor growth (weight : T/C %),Sarcoma-180 (S-180) [1]; 2000 mg/Kg oral,36%
same,minimal effective dose,"Sarcoma-180 (S-180) [1]; S-180, po",~250 mg/kg
same,availability,Sarcoma-180 (S-180) [1]; compared with FT-207 and 5-FU,higher than those of the other two drugs
same,ratio of the minimum effective dose to toxic dose (LD50),"Sarcoma-180 (S-180) [1]; oral, S-180 solid tumor",less than 1/16
same,ILS % over controls,L-1210 leukemia [2]; 125 mg/Kg i.p. in MCT,0%
same,Mean survival days,L-1210 leukemia [2]; 125 mg/Kg i.p. in MCT,7.0 days
same,ILS % over controls,L-1210 leukemia [2]; 250 mg/Kg i.p. in MCT,14%
same,Mean survival days,L-1210 leukemia [2]; 250 mg/Kg i.p. in MCT,8.0 days
same,ILS % over controls,L-1210 leukemia [2]; 500 mg/Kg i.p. in MCT,40%
same,Mean survival days,L-1210 leukemia [2]; 500 mg/Kg i.p. in MCT,9.8 days
same,ILS % over controls,L-1210 leukemia [2]; 1000 mg/Kg i.p. in MCT,73%
same,Mean survival days,L-1210 leukemia [2]; 1000 mg/Kg i.p. in MCT,12.1 days
same,ILS % over controls,L-1210 leukemia [2]; 2000 mg/Kg i.p. in MCT,79%
same,Mean survival days,L-1210 leukemia [2]; 2000 mg/Kg i.p. in MCT,12.5 days
same,ILS % over controls,L-1210 leukemia [2]; 4000 mg/Kg i.p. in MCT,93%
same,Mean survival days,L-1210 leukemia [2]; 4000 mg/Kg i.p. in MCT,13.5 days
same,availability,L-1210 leukemia [2]; compared with 5-FU,higher than that of 5-FU
same,"ratio of dose (corresponding ILS) to LD50, compared with 5-FU",L-1210 leukemia [2]; compared with 5-FU,smaller than that of 5-FU
same,effectiveness,L-1210 leukemia [2]; dose of about 1/8 LD50,effective
same,Mean survival days,"L-1210 leukemia [3]; 1000 mg/Kg i.p. in MCT, 0 days before tumor implantation",11.6 days
same,Mean survival days,"L-1210 leukemia [3]; 1000 mg/Kg i.p. in MCT, 1 day before tumor implantation",13.0 days
same,Mean survival days,"L-1210 leukemia [3]; 1000 mg/Kg i.p. in MCT, 2 days before tumor implantation",16.4 days
same,Mean survival days,"L-1210 leukemia [3]; 1000 mg/Kg i.p. in MCT, 3 days before tumor implantation",11.8 days
same,Mean survival days,"L-1210 leukemia [3]; 1000 mg/Kg i.p. in MCT, 4 days before tumor implantation",11.2 days
same,Mean survival days,"L-1210 leukemia [3]; 1000 mg/Kg i.p. in MCT, 6 days before tumor implantation",13.5 days
same,duration of antitumor effects,L-1210 leukemia [3]; from Table 6,6 days
same,survival effects,"L-1210 leukemia [3]; same day of implantation, or 1-6 days prior to the implantation",exhibits survival effects
"O=c1[nH]cc(F)c(=O)[nH]1 [Example 5-FU, 5-fluorouracil]",LD50 at 504 h,[4]; [8],150 mg/kg
same,LD50 at 504 h,[4]; [9],175 mg/kg
same,LD50 at 504 h,[4]; intravenous administration,135 mg/kg
same,LD50 at 504 h,[4]; oral administration,120 mg/kg
same,Tumor growth (TPCV : T/C %),Sarcoma-180 (S-180) [5]; 34 mg/Kg,43.3%
same,Tumor growth (TPCV : T/C %),Sarcoma-180 (S-180) [5]; 68 mg/Kg,26.4%
same,Tumor growth (TPCV : T/C %),Sarcoma-180 (S-180) [5]; 125 mg/Kg,4.3%
same,Tumor growth (TPCV : T/C %),Sarcoma-180 (S-180) [5]; 250 mg/Kg,died
same,Tumor growth (TPCV : T/C %),Sarcoma-180 (S-180) [5]; 500 mg/Kg,died
same,ED50,Sarcoma-180 (S-180) [5],~25 mg/kg
same,safety index (LD50 /ED50),Sarcoma-180 (S-180) [5],about 5
same,Tumor growth (weight : T/C %),Sarcoma-180 (S-180) [1]; 10 mg/Kg oral,156%
same,Tumor growth (weight : T/C %),Sarcoma-180 (S-180) [1]; 20 mg/Kg oral,55%
same,Tumor growth (weight : T/C %),Sarcoma-180 (S-180) [1]; 40 mg/Kg oral,52%
same,Tumor growth (weight : T/C %),Sarcoma-180 (S-180) [1]; 80 mg/Kg oral,63%
same,minimal effective dose,"Sarcoma-180 (S-180) [1]; S-180, po",~20 mg/kg
same,ratio of the minimum effective dose to toxic dose (LD50),"Sarcoma-180 (S-180) [1]; oral, S-180 solid tumor",about 1/6
same,ILS % over controls,L-1210 leukemia [2]; 15 mg/Kg i.p. in saline,15%
same,Mean survival days,L-1210 leukemia [2]; 15 mg/Kg i.p. in saline,8.1 days
same,ILS % over controls,L-1210 leukemia [2]; 30 mg/Kg i.p. in saline,25%
same,Mean survival days,L-1210 leukemia [2]; 30 mg/Kg i.p. in saline,8.8 days
same,ILS % over controls,L-1210 leukemia [2]; 60 mg/Kg i.p. in saline,38%
same,Mean survival days,L-1210 leukemia [2]; 60 mg/Kg i.p. in saline,9.7 days
same,Mean survival days,"L-1210 leukemia [3]; 50 mg/Kg i.p. in saline, 1 day before tumor implantation",9.0 days
same,Mean survival days,"L-1210 leukemia [3]; 50 mg/Kg i.p. in saline, 2 days before tumor implantation",9.0 days
same,Mean survival days,"L-1210 leukemia [3]; 50 mg/Kg i.p. in saline, 4 days before tumor implantation",8.8 days
same,toxicity at the effective dosage,[7],relatively severe toxicity
